# Data taken from article PMC9501633, “Synthesis, Characterisation and Mechanism of Action of Anticancer 3-Fluoroazetidin-2-ones” (Pharmaceuticals, 2022).
# How the values were obtained:
# [1] = test system: purified bovine brain tubulin; parameters: method as in PMID 31954879; settings: 10 μM; cited from earlier work
# [2] = test system: purified bovine brain tubulin; assay: Tubulin polymerisation assay (turbidimetric, 340 nm); assay type: biochemical
# Method: Tubulin polymerisation was investigated using a turbidimetric assay which determines the light scattering by microtubules (absorbance at 340 nm) that is proportional to the microtubule polymer concentration.
# Tubulin polymerisation was monitored with purified bovine tubulin using the BK006 kit supplied by Cytoskeleton Inc. (Denver, CO, USA), carried out following the manufacturer’s instructions with the standard assay conditions. Purified (>99%) bovine brain tubulin (3 mg/mL) in a buffer containing PIPES (80 mM, pH 6.9), EGTA (0.5 mM), MgCl2 (2 mM), GTP (1 mM) and glycerol (10%) was incubated at 37 °C in the presence of either vehicle (2% (v/v) ddH2O) or paclitaxel (10 µM), CA-4 (10 μM) or 33 (10 and 30 µM). The effect on tubulin assembly was monitored turbidimetrically at 340 nm in a Spectramax 340 PC spectrophotometer (Molecular Devices, Sunnyvale, CA, USA), with the light scattered depending on the concentration of polymerised microtubules formed. The absorbance was measured at 30 s intervals for 60 min.
# Figure 7 Effect of β-lactam compound 33 (10 and 30 µM) and paclitaxel (10 µM) on in vitro tubulin polymerisation. Purified bovine tubulin and GTP were mixed in a 96-well plate. Compounds were added and the reaction was started by warming the solution from 4 to 37 °C. Ethanol (1% v/v) was used as a vehicle control. The effect on tubulin assembly was monitored in a Spectramax 340PC spectrophotometer at 340 nm at 30 s intervals for 30 min at 37 °C. […] Each experiment was performed in duplicate.
# survivin = assay: Western blot of apoptosis regulatory proteins in MCF-7 cells; assay type: cell-based, human; settings: MCF-7, 0.05, 0.1 and 0.5 μM, dose- and time-dependent
# Text: Survivin is a member of the inhibitor of apoptosis (IAP) protein family. It is an essential anti-apoptotic protein marker that is overexpressed in most tumour cells and is associated with a poor clinical outcome. Survivin inhibits caspase activation, which is used as an indicator of apoptosis cascades. Survivin selective inhibitor molecules have been identified as cancer therapeutics, including survivin–partner protein interaction inhibitors, survivin homodimerisation inhibitors, survivin gene transcription inhibitors and survivin mRNA inhibitors. We examined the effect of a range of concentrations of compound 33 (0.05, 0.1 and 0.5 μM) on the level of survivin expressed.
# Western blot analysis was performed according to the protocols we previously described. MCF-7 cells were seeded at a density of 1 × 10^5 cells/flask in T25 flasks. After 48 h, whole cell lysates were prepared from untreated cells or cells treated with vehicle control (EtOH, 0.1% v/v) or cells treated with compound 33 (0.05 μM, 0.1 μM and 0.5 μM). […] Equal amounts of protein (as determined by a BCA assay) were resolved by SDS-PAGE (12%) followed by transfer to PVDF membranes. […] Proteins were detected using enhanced chemiluminescent Western blot detection (Clarity Western ECL substrate) (Bio-Rad) on the ChemiDoc MP System (Bio-Rad). […]
Structure (SMILES),reduction in the Vmax of tubulin polymerisation [1] [fold],reduction in the Vmax of tubulin polymerisation compared to the vehicle ([2]; 10 μM) [fold],reduction in the Vmax of tubulin polymerisation compared to the vehicle ([2]; 30 µM) [fold],"effect on tubulin polymerisation ([2]; paclitaxel 10 µM, 33 10 and 30 µM)",survivin expression (survivin)
"COc1ccc(/C=C\c2cc(OC)c(OC)c(OC)c2)cc1O [CA-4, combretastatin A-4, reference compound]",6.3,,,,
"COc1ccc(C2C(F)C(=O)N2c2cc(OC)c(OC)c(OC)c2)cc1F (centres unmarked) [Compound 33, 3-Fluoro-4-(3-fluoro-4-methoxyphenyl)-1-(3,4,5-trimethoxyphenyl)azetidin-2-one]",,3.5,4,inhibited tubulin polymerisation,downregulation
